From US20170226139A1, “CRYSTALLINE SALTS OF (Z)-O-OCTADEC-9-EN-1-YL O,O-DIHYDROGEN PHOSPHOROTHIOATE” (priority 2013, published 2017)
Like-named read-outs stand apart in the source and are kept apart here.

Key:
Human LPA3 = target: T1, Human LPA3 (Homo sapiens, UniProt Q9UBY5); experiment: Calcium-mobilization assay (FURA-2), human LPA3 transfected cells; type: cell-based; conditions: for EC50: EC50 [nM], mean
T1 construct: expressed in transfected cells; host or cells: mouse embryonic fibroblasts (MEF) or rat hepatoma RH7777
T1 sequence (Q9UBY5 1-353): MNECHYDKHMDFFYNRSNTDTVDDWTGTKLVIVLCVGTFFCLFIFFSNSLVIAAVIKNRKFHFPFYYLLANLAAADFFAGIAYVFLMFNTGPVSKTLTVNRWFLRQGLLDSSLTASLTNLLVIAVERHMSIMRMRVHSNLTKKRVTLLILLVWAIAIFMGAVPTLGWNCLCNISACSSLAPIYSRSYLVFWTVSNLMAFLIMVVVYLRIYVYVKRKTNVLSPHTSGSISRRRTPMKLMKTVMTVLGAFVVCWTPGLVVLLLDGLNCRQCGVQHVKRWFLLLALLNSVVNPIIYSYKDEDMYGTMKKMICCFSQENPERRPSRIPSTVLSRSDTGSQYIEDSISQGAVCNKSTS
Procedure: We investigated structure-activity relationships across species, LPAR subtypes and between Rx100 and two known process impurities encountered in manufacture: Rx103 (‘E’ isomer) and Rx200 (oleyl phosphate and impurity, which can be an Rx100 degradant along with oleyl alcohol). Rx100, Rx103, Rx200 and native LPA were investigated at different human LPAR subtypes. In addition, the activity of these compounds was evaluated at LPA2 receptors from the rhesus, rat and mouse species. Human LPA1/2/3 subtypes were transfected into mouse embryonic fibroblasts (MEF) or rat hepatoma cells (RH7777)—both of which are normally non-responsive or null to LPA. Human LPA4 was transfected into Chinese hamster ovary (CHO) cells and LPA5 into the B103 neuroblastoma cell line. […] The B103 rat neuroblastoma cell line is endogenously nonresponsive to LPA but expresses heterologous LPA5 receptors well. […] LPAR activation elicits a G-protein-mediated transient rise in intracellular calcium level that is proportional to the concentration of LPA applied. The intracellular calcium level was quantified by the calcium-selective fluorescent indicator FURA-2 (e.g., increased intracellular calcium surge=increased fluorescence).

[1] = test system: bone marrow cells (micronucleated PCEs); experiment: In vivo rat bone marrow micronucleus assay; design: species or system Sprague-Dawley rats
Procedure: A GLP-compliant rat micronucleus study was performed using male Sprague-Dawley rats (n=5/group) administered single subcutaneous doses of Rx100.lysine at 0 (0.5% sterile water for injection with 10 mM L-histidine), 125, 250, and […] (doses corrected for purity were 113, 225 and 452 mg/kg). One additional group received the positive control material (cyclophosphamide). Five animals per group were sacrificed 24 hours postdose; five animals from the vehicle and high dose group were sacrificed 48 hours postdose. Following sacrifice, bone marrow cells were collected from the femur. 2000 PCEs per animal were analyzed for the frequency of micronuclei. […] The materials were also shown to be homogenous (relative standard deviation [RSD] of 0.7 to 0.9%). […] Thus, Rx100.Lysine was considered to be negative in the micronucleus assay.

[2] = test system: male telemetered cynomolgus monkeys; experiment: Cardiovascular safety pharmacology in telemetered monkeys; type: in vivo; conditions: SC 0.1, 0.5 and 2.0 mg/kg as the free acid
Procedure: Four male telemetered cynomolgus monkeys were selected, and assigned via a Latin Square design to receive four doses of Rx100.lysine or vehicle via subcutaneous injection at doses of 0 (10 mM histidine in sterile water for injection, USP), 0.1, 0.5 and 2.0 mg/kg as the free acid. Parameters evaluated include clinical observations, body temperature, arterial pressure and ECG evaluations (PR, QT, QRS durations). QTc values were calculated based on data collected for each animal.

[3] = 125 mg/kg single subcutaneous dose, harvest 24 hour
[4] = 250 mg/kg single subcutaneous dose, harvest 24 hour

**Q.** For `CCCCCCCC/C=C\CCCCCCCCOP(O)(O)=S` [Rx100, (Z)—O-octadec-9-en-1-yl O,O-dihydrogen phosphorothioate], which EC50 (Human LPA3; LPA3 DKO MEF, human) is on record?
**A.** The EC50 was 205 nM.

**Q.** And the EC50 (Human LPA3; LPA3 RH7777, human)?
**A.** The EC50 was 113 nM.

**Q.** What about the Emax (Human LPA3; RH7777, read-out: Emax (% of LPA)) of the same molecule?
**A.** Its Emax is 71%.

**Q.** What about the Emax (Human LPA3; read-out: Emax (% of LPA)) of the same molecule?
**A.** Its Emax is 82%.

**Q.** Which results are given for `CCCCCCCC/C=C\CCCCCCCCOP(O)(O)=S` [Rx100.L-Lysine, (Z)—O-octadec-9-en-1-yl O,O-dihydrogen phosphorothioate]?
**A.** Mean % MNPC (±SD) Male [1, 3]: 0.04%; Mean Ratio PCE:NCE (±SD) Male [1, 3]: 0.55; Mean % MNPC (±SD) Male [1, 4]: 0.07%; Mean Ratio PCE:NCE (±SD) Male [1, 4]: 0.59; Mean Ratio PCE:NCE (±SD) Male ([1]; 500 mg/kg single subcutaneous dose, harvest 48 hour): 0.36; Toxic/Cytotoxic Effects ([1]; all doses of the test article, statistically significant decreases in the PCE:NCE ratios): Toxic/Cytotoxic Effects: Rx100.Lysine was cytotoxic to the bone marrow (i.e., statistically significant decreases in the PCE:NCE ratios); micronucleated PCEs ([1]; any dose, 24 hour point, single SC dose): no increase in micronucleated PCEs; clinical signs ([1]; high dose animals at 48 hours postdose): hunched posture, hypoactivity and irregular respiration; micronucleated PCEs ([1]; high dose animals, 48-hour time point, not considered biologically relevant): statistically significant increase; micronucleus assay, overall result ([1]; rat, in vivo): negative; ECG intervals [2]: no meaningful changes in PR, QRS, QT and QTc; heart rate [2]: slight dose-dependent increase in heart rate
